Experimental data from ChEMBL document CHEMBL5543061, “Recent advances of antitumor leading compound Erianin: Mechanisms of action and structural modification” (Eur J Med Chem, 2023).

How the values were obtained:
[1] = Half life in Beagle dog at 7.5 mg/kg, iv measured for 8 to 12 hrs by LC-MS/MS analysis; assay type: ADME, organism-based, Canis lupus familiaris; settings: in vivo, time 8-12 hrs
MCF7 [2] = assay: Antiproliferative activity against human MCF7 cells assessed as reduction in cell viability incubated for 72 hrs by MTT assay; assay type: functional, cell-based; settings: MCF7, 72 h
143B [3] = assay: Antiproliferative activity against human 143B cells assessed as inhibition of cell growth measured after 24 hrs by MTT assay; assay type: functional, cell-based
MIA PaCa-2 = assay: Antiproliferative activity against human MIA PaCa-2 cells assessed as reduction of cell viability incubated for 72 hrs by CCK-8 assay; assay type: functional, cell-based; settings: MIA PaCa-2, 72 h
PLC-PRF-5 = assay: Antiproliferative activity against human PLC-PRF-5 cells; assay type: functional, cell-based
143B [4] = assay: Antiproliferative activity against human 143B cells assessed as inhibition of cell growth measured after 48 hrs by MTT assay; assay type: functional, cell-based
[5] = Half life in rat at 50 mg/kg, iv; assay type: ADME, organism-based; settings: in vivo
LNCaP [6] = assay: Cytotoxicity against human LNCaP cells assessed as reduction in cell growth incubated for 72 hrs by MTT assay; assay type: functional, cell-based
HuH-1 = assay: Antiproliferative activity against human HuH-1 cells; assay type: functional, cell-based
HepG2 [7] = assay: Antiproliferative activity against human HepG2 cells assessed as inhibition of cell growth relative to control; assay type: functional; design: scale not given: the % may be the effect or the level left
HepG2 [8] = assay: Anticancer activity against human HepG2 cells assessed as reduction in cell viability measured for 24 hrs by MTT assay; assay type: functional, cell-based; settings: HepG2, 24 h
HLE = assay: Antiproliferative activity against human HLE cells; assay type: functional, cell-based
[9] = Elimination half life in rat at 2 mg/kg, iv; assay type: ADME, organism-based; settings: in vivo, read-out: beta t1/2 (converted)
HL-60 [10] = assay: Cytotoxicity against human HL-60 cells assessed as reduction in cell viability incubated for 48 hrs by MTT assay; assay type: functional, cell-based; settings: HL-60, 48 h
[11] = Half life in Beagle dog at 30 mg/kg, iv measured for 8 to 12 hrs by LC-MS/MS analysis; assay type: ADME, organism-based, Canis lupus familiaris; settings: in vivo, time 8-12 hrs
SMMC-7721 = assay: Antiproliferative activity against human SMMC-7721 cells assessed as reduction in cell viability incubated for 24 hrs by CCK-8 assay; assay type: functional, cell-based; settings: SMMC-7721, 24 h
HepG2 [12] = assay: Anticancer activity against human HepG2 cells assessed as cell growth reduction incubated for 48 hrs by MTT assay; assay type: functional, cell-based; settings: HepG2, 48 h
HCT-116 = assay: Antiproliferative activity against human HCT-116 cells assessed as reduction in cell viability incubated for 72 hrs by MTT assay; assay type: functional, cell-based; settings: HCT-116, 72 h
[13] = Antiproliferative activity against human MG-63.3 cells assessed as reduction in cell viability measured for 24 hrs by MTT assay; assay type: functional, cell-based; settings: MG-63.3, 24 h
MDA-MB-468 = assay: Antiproliferative activity against human MDA-MB-468 cells assessed as reduction in cell viability incubated for 72 hrs by MTT assay; assay type: functional, cell-based; settings: MDA-MB-468, 72 h
MDA-MB-231 = assay: Antiproliferative activity against human MDA-MB-231 cells assessed as reduction in cell viability incubated for 24 hrs by MTT assay; assay type: functional, cell-based; settings: MDA-MB-231, 24 h
NCI-H1975 = assay: Antiproliferative activity against human NCI-H1975 cells assessed as reduction in cell viability incubated for 48 hrs by MTT assay; assay type: functional, cell-based; settings: NCI-H1975, 48 h
HeLa [14] = assay: Antiproliferative activity against human HeLa cells assessed as reduction in cell viability by MTT assay; assay type: functional, cell-based
143B [15] = assay: Antiproliferative activity against human 143B cells assessed as inhibition of cell growth measured after 72 hrs by MTT assay; assay type: functional, cell-based
A-375 = assay: Antiproliferative activity against human A-375 cells assessed as reduction in cell viability incubated for 72 hrs by MTT assay; assay type: functional, cell-based; settings: A-375, 72 h
LNCaP [16] = assay: Cytotoxicity against human LNCaP cells assessed as reduction in cell growth incubated for 24 hrs by MTT assay; assay type: functional, cell-based
HepG2 [17] = assay: Antiproliferative activity against human HepG2 cells assessed as reduction in cell growth; assay type: functional, cell-based
HepG2 [18] = assay: Anticancer activity against human HepG2 cells assessed as reduction in cell viability; assay type: functional, cell-based
[19] = Half life in rat at 100 mg/kg, iv; assay type: ADME, organism-based; settings: in vivo
Ishikawa = assay: Antiproliferative activity against human Ishikawa cells assessed as reduction in cell viability by MTS assay; assay type: functional, cell-based
[20] = Antiproliferative activity against human MG-63.3 cells assessed as reduction in cell viability measured for 72 hrs by MTT assay; assay type: functional, cell-based; settings: MG-63.3, 72 h
[21] = Antiproliferative activity against human HEC-251 cells assessed as reduction in cell viability; assay type: functional, cell-based
HL-60 [22] = assay: Antiproliferative activity against human HL-60 cells assessed as reduction in cell viability incubated for 72 hrs by MTT assay; assay type: functional, cell-based; settings: HL-60, 72 h
[23] = Antiproliferative activity against human MG-63.3 cells assessed as reduction in cell viability measured for 48 hrs by MTT assay; assay type: functional, cell-based; settings: MG-63.3, 48 h
[24] = Antiproliferative activity against human EFM-192A cells; assay type: functional, cell-based
SK-MEL3 = assay: Antiproliferative activity against human SK-MEL3 cells harboring BRAF V600E mutant assessed as reduction in cell viability by cell-titer Glo assay; assay type: functional, cell-based
LLC-MK2 = assay: Antiproliferative activity against Rhesus monkey LLC-MK2 cells assessed as reduction in cell viability incubated for 48 hrs by MTT assay; assay type: functional, cell-based; settings: Macaca mulatta, LLC-MK2, 48 h
A549 [25] = assay: Antiproliferative activity against human A549 cells assessed as reduction in cell viability incubated for 48 hrs by MTT assay; assay type: functional, cell-based; settings: A549, 48 h
PC-3 = assay: Antiproliferative activity against human PC-3 cells assessed as reduction of cell viability incubated for 24 to 72 hrs by CCK-8 assay; assay type: functional, cell-based
[26] = Half life in rat at 25 mg/kg, iv; assay type: ADME, organism-based; settings: in vivo
EJM = assay: Antitumor activity against human EJM cells assessed as reduction in cell viability incubated for 24 hrs by CCK-8 assay; assay type: functional, cell-based
A549 [27] = assay: Antiproliferative activity against human A549 cells assessed as reduction in cell viability incubated for 72 hrs by MTT assay; assay type: functional, cell-based; settings: A549, 72 h
HepG2 [28] = assay: Antiproliferative activity against human HepG2 cells; assay type: functional, cell-based
[29] = Antiproliferative activity against human SNU-739 cells; assay type: functional, cell-based
SNU-449 = assay: Antiproliferative activity against human SNU-449 cells; assay type: functional, cell-based
T-24 = assay: Antiproliferative activity against human T24 cells assessed as reduction in cell viability incubated for 48 hrs by MTT assay; assay type: functional, cell-based; settings: T-24, 48 h
LNCaP [30] = assay: Cytotoxicity against human LNCaP cells assessed as reduction in cell growth incubated for 48 hrs by MTT assay; assay type: functional, cell-based
[31] = Half life in Beagle dog at 15 mg/kg, iv measured for 8 to 12 hrs by LC-MS/MS analysis; assay type: ADME, organism-based, Canis lupus familiaris; settings: in vivo, time 8-12 hrs
HeLa [32] = assay: Antiproliferative activity against human HeLa cells assessed as reduction in cell viability incubated for 48 hrs by MTT assay; assay type: functional, cell-based
HepG2 [33] = assay: Anticancer activity against human HepG2 cells assessed as cell growth reduction incubated for 24 hrs by MTT assay; assay type: functional, cell-based; settings: HepG2, 24 h
[34] = Oral bioavailability in rat at 10 mg/kg; assay type: ADME, organism-based; settings: in vivo
Huh-7 = assay: Antiproliferative activity against human Huh-7 cells; assay type: functional, cell-based
HCC 2998 = assay: Antiproliferative activity against human HCC 2998 cells assessed as reduction in cell viability incubated for 72 hrs by MTT assay; assay type: functional, cell-based; settings: HCC 2998, 72 h
Bel-7402 = assay: Antiproliferative activity against human Bel-7402 cells incubated for 72 hrs by MTT assay; assay type: functional, cell-based; settings: Bel-7402, 72 h
MCF7 [35] = assay: Cytotoxicity against human MCF7 cells assessed as reduction in cell viability incubated for 72 hrs by MTT assay; assay type: functional, cell-based; settings: MCF7, 72 h

COc1ccc(CCc2cc(OC)c(OC)c(OC)c2)cc1O
half-life [1]: 1.41 h | IC50 (MCF7 [2]): 0.06 µM | IC50 (143B [3]): 0.0582 µM | IC50 (MIA PaCa-2): 0.05 µM | IC50 (PLC-PRF-5): 0.055 µM | IC50 (143B [4]): 0.041 µM | half-life [5]: 3.75 h | IC50 (LNCaP [6]): 0.0262 µM | IC50 (HuH-1): 0.0259 µM | Activity (HepG2 [7]): 82.81% | IC50 (HepG2 [8]): 0.0437 µM | IC50 (HLE): 0.0286 µM | half-life [9]: 1.5 h | IC50 (HL-60 [10]): 0.04 µM | half-life [11]: 1.6 h | IC50 (SMMC-7721): 0.081 µM | IC50 (HepG2 [12]): 0.12 µM | IC50 (HCT-116): 0.06 µM | IC50 [13]: 0.0887 µM | IC50 (MDA-MB-468): 0.04 µM | IC50 (MDA-MB-231): 0.071 µM | IC50 (NCI-H1975): 0.0005 µM | IC50 (HeLa [14]): 0.22 µM | IC50 (143B [15]): 0.0268 µM | IC50 (A-375): 0.0206 µM | IC50 (LNCaP [16]): 0.0338 µM | IC50 (HepG2 [17]): 0.175 µM | IC50 (HepG2 [18]): 0.0728 µM | half-life [19]: 3.89 h | IC50 (Ishikawa): 0.0406 µM | IC50 [20]: 0.0172 µM | IC50 [21]: 0.0418 µM | IC50 (HL-60 [22]): 0.038 µM | IC50 [23]: 0.0443 µM | IC50 [24]: 0.0786 µM | IC50 (SK-MEL3): 0.012 µM | IC50 (LLC-MK2): 0.0023 µM | IC50 (A549 [25]): 0.0006 µM | IC50 (PC-3): 0.026 µM | half-life [26]: 3.66 h | IC50 (EJM): 0.065 µM | IC50 (A549 [27]): 0.07 µM | IC50 (HepG2 [28]): 0.584 µM | IC50 [29]: 0.0177 µM | IC50 (SNU-449): 0.236 µM | IC50 (T-24): 0.0459 µM | IC50 (LNCaP [30]): 0.0265 µM | half-life [31]: 1.66 h | IC50 (HeLa [32]): 8.3 µM | IC50 (HepG2 [33]): 0.128 µM | bioavailability [34]: 8.7% | IC50 (Huh-7): 0.0443 µM | IC50 (HCC 2998): 0.07 µM | IC50 (Bel-7402): 0.0215 µM

COc1cc(CCc2ccc(OC(F)F)c(N)c2)cc(OC)c1OC
IC50 (MCF7 [35]): 0.13 µM
